Source: US9700499B2, “Antimicrobial compositions” (GIVAUDAN SA, priority 2005, dated 2017)
“Also recorded” adds a separate entry of the source.

Legend:
Assay type in all cases: cell-based
[1] = test system: Aspergillus niger ATCC 16404 spores; assay: Sporicidal effect of test compounds and preservatives in a cosmetic cream; details: for Enhancing effect in the cosmetic cream in presence of phenoxyethanol: 0.2% test compound with phenoxyethanol; for Enhancing activity in cream: 0.1% test compound with phenoxyethanol, complete killing of spores within 7 days
Procedure: A cosmetic cream (pH 5.5) for application to the human skin is formulated as follows (in % w/w): […]
Glyceryl-monostearate, Sweet almond oil, Cetyl-stearyl-alcohol and Glyceryl dilaurate are melted at 80° C. Xanthan gum is dispersed into glycerine. Arginine is dissolved in water and heated to 75° C. The Xanthan gum-glycerin suspension is added to the heated water phase, the heated oil phase is added and the suspension is stirred at 300 rpm for 10 min whilst being cooled down slowly. Finally, a homogeneous emulsion is made with a high speed homogenizer at 5000 rpm.
Test samples of cream contain different amounts of preservatives and/or preservative enhancer. The preservative and preservative enhancer is added to an aliquot of 10 g of the cream in 50 ml tubes to a concentration (w/w) of 0.1-0.5% as shown in the table below. After addition of the preservative/preservative enhancer, the cream is thoroughly mixed to achieve a homogeneous distribution.
After 1-3 days of equilibration of the cream (storage at room temperature to achieve a homogenous partitioning of compounds between oil and water phase), to each sample 100 μl of a spore suspension of Aspergillus niger ATCC 16404 containing 3×10^7 spores/ml (prepared as described in example 1) is added. After regular test intervals, samples of 1 g cream are removed and added to 20 ml of a neutralizer solution containing 0.2% lecithin, 2% Tween 80 and 0.5% NaCl. These dilutions are vigorously shaken for 10 min until the cream is dissolved, and then aliquots of this solution are spread plated on potato dextrose agar containing 0.2% Tween 80. After 48 h to 72 h the number of surviving colony forming units (and therefore surviving spores) are counted.
The sporidical effect in cream (prepared as described in example 2) is compared when using the test compounds alone or in combination with phenoxyethanol, benzyl alcohol or 2-Phenylethanol.
The experiments described in example 2-4 are performed with varying concentrations of test compound and preservative as indicated in Table 5.

[2] = test system: Aspergillus niger ATCC 16404 spores; assay: Sporicidal effect of test compounds in water; details: for Reduction factor / Spores/ml: 0.1% test compound in water; for Reduction factor: after 7 days, count of negative control divided by count of test compound; for Spores/ml: spore count after 7 days; for Sporicidal effect (reduction of spore counts) in water: test compound alone in water at 0.1%
Procedure: Aspergillus niger ATCC 16404 spores are added to water to obtain a density of 3×10^5 spores/ml. In order to prepare the spores, the test strain is grown for 5 days on potato dextrose agar at room temperature. The spores are harvested with a solution containing 0.1% Tween 80, peptone 0.1% and NaCl 0.85% and the spore concentration is adjusted to the density indicated above.
Test compounds are dissolved in dipropyleneglycol to a concentration of 20%.
These stock solutions are added to 10 ml aliquots of the spore suspension to obtain a final concentration of the test compounds of 0.1%. The sporicidal effect is shown by a reduction of spore counts after 7 days.
The reduction factor is determined as follows. Aliquots of the above prepared suspension of microorganisms (here: spore suspension prepared as described above) are plated on a suitable agar medium (see above) and the developing colonies are counted both for samples with test compound and for a negative probe (water). The count of the negative control is divided by the count of the test compound and thereby the reduction factor is determined. A negative control (water) accordingly has a reduction factor of 1 (no effect on the microorganism).

[3] = test system: Staphylococcus aureus (DSMZ 799) and Pseudomonas aeruginosa (ATCC 15442); assay: Activity against bacteria in cosmetic cream (mixed inoculum 1:1)
Procedure: As test organisms Staphylococcus aureus (DSMZ 799) and Pseudomonas aeruginosa (ATCC 15442) are used. The strains are grown overnight in Mueller-Hinton broth and adjusted to a cell density of 1×10^8 cfu (colony forming units) per ml.
The two bacterial strains are mixed in a ratio of 1:1 and 100 μl of this mixed inoculum is added to 10 ml aliquots of the cosmetic cream supplemented with test compounds as described in Example 2 in the concentration as indicated in the table below.
The resulting mixtures are incubated at room temperature and at the regular intervals samples are removed, suspended in neutralizer solution and diluted as described above (example 2).
Aliquots of these suspended and diluted samples are plated on tryptic soy agar supplemented with 0.5% Tween 80 and then incubated for 24 h at 37° C. Surviving bacteria are counted.

[4] = test system: Candida albicans ATCC 10231, Candida guilliermondii ATCC 6260 and Candida parapsilosis ATCC 22019; assay: Activity against yeasts in cosmetic cream (mixture of three yeast strains 1:1:1)
Procedure: The same procedure as described above except for the changes mentioned below is performed with a mixture of the three yeast strains Candida albicans ATCC 10231, Candida guilliermondii ATCC 6260 and Candida parapsilosis ATCC 22019 that replace the bacterial strains.
The yeast strains are grown in Sabouraud liquid medium, washed and suspended in saline and adjusted to 5×10^7 cfu (colony forming units) per ml. The Inoculum of the three strains is then pooled in a ratio of 1:1:1. For determining the reduction factor by counting of the colonies formed, the samples inoculated with the yeast strains are spread plated on potato dextrose, incubated until colonies have formed and counted.

[5] = 0.1% test compound and 0.5% phenoxyethanol (Table 2)
[6] = 0.1% test compound and 0.5% phenoxyethanol, 7 d (Table 2)
[7] = 0.2% test compound and 0.5% phenoxyethanol (Table 2)
[8] = 0.2% test compound and 0.5% phenoxyethanol, 7 d (Table 2)
[9] = test compound (0.1% where given) with Phenoxyethanol 0.5% (Table 3)
[10] = test compound (0.1% where given) with Phenoxyethanol 0.5%, 7 d (Table 3)
[11] = test compound alone (0.1% where given), no preservative (Table 3)
[12] = test compound alone (0.1% where given), no preservative, 7 d (Table 3)
[13] = test compound 0.1% alone, no preservative
[14] = test compound 0.1% with 2-Phenylethanol 0.5%
[15] = test compound 0.1% with Phenoxyethanol 0.5%

## COc1cccc(C=O)c1 [3-methoxybenzaldehyde]
[1]; [5]
  Spores/ml after 7 d: <100 Spores/ml
[1]; [6]
  Reduction factor: >737

## CC(CC=O)CCc1ccccc1 (centres unmarked) [Mefranal, 3-methyl-5-phenylpentanal, reference compound]
[2]
  Reduction factor: 63
  Spores/ml: 4 × 10^3 Spores/ml
  Sporicidal effect (reduction of spore counts) in water: significant sporicidal effect
[1]; [7]
  Spores/ml after 7 d: 3.12 × 10^4 Spores/ml
[1]; [8]
  Reduction factor: 1.6
[1]
  Enhancing effect in the cosmetic cream in presence of phenoxyethanol: do not show an enhancing effect

## O=Cc1ccccc1 [Benzaldehyde, reference compound]
[1]; [5]
  Spores/ml after 7 d: <100 Spores/ml
[1]; [6]
  Reduction factor: >737

## COc1cc(O)ccc1C=O [4-hydroxy-2-methoxy-benzaldehyde]
[1]; [9]
  Spores/ml after 7 d: <100 Spores/ml
[1]; [10]
  Reduction factor: >1040
[1]; [11]
  Spores/ml after 7 d: 2.08 × 10^4 Spores/ml
[1]; [12]
  Reduction factor: 5

## Cc1ccc(C=O)cc1 [4-methylbenzaldehyde]
[1]; [5]
  Spores/ml after 7 d: <100 Spores/ml
[1]; [6]
  Reduction factor: >737

## C=CCCCCCCCCO [9-decen-1-ol, reference compound]
[2]
  Reduction factor: 23
  Spores/ml: 1.1 × 10^4 Spores/ml
  Sporicidal effect (reduction of spore counts) in water: significant sporicidal effect
[1]; [7]
  Spores/ml after 7 d: 2.44 × 10^4 Spores/ml
[1]; [8]
  Reduction factor: 2.1
[1]
  Enhancing effect in the cosmetic cream in presence of phenoxyethanol: do not show an enhancing effect

## O=Cc1ccc2c(c1)OCO2 [Heliotropine]
[1]; [5]
  Spores/ml after 7 d: <100 Spores/ml
[1]; [6]
  Reduction factor: >737

## OCCc1ccccc1 [2-Phenylethanol, reference compound]
[1]; preservative 0.5% alone, no test compound (Table 3)
  Spores/ml after 7 d: 4.2 × 10^4 Spores/ml
[1]; preservative 0.5% alone, no test compound, 7 d (Table 3)
  Reduction factor: 2.5

## O=Cc1ccc(O)cc1 [4-hydroxybenzaldehyde]
[2]
  Reduction factor: <2
  Spores/ml: >1.2 × 10^5 Spores/ml
  Sporicidal effect (reduction of spore counts) in water: no significant sporicidal effect; also recorded: No significant reduction of spore counts
[3]; [13]
  Bacteria (cfu/g cream) 24 h: 3.8 × 10^3 cfu/g cream
  Bacteria (cfu/g cream) 7 d: 1.28 × 10^4 cfu/g cream
[3]; [14]
  Bacteria (cfu/g cream) 24 h: 1 × 10^3 cfu/g cream
  Bacteria (cfu/g cream) 7 d: <200 cfu/g cream
[3]; [15]
  Bacteria (cfu/g cream) 24 h: 1.9 × 10^4 cfu/g cream
  Bacteria (cfu/g cream) 7 d: <200 cfu/g cream
[1]; [5]
  Spores/ml after 7 d: <100 Spores/ml
[1]; [6]
  Reduction factor: >737
[1]
  Enhancing activity in cream: excellent enhancing activity
[1]; test compound 0.05% w/w with preservative (phenoxyethanol) 0.5% w/w (Table 5)
  Reduction factor A. niger, 7 d: 66
[1]; test compound 0.1% w/w with preservative (phenoxyethanol) 0.3% w/w (Table 5)
  Reduction factor A. niger, 7 d: 295
[1]; test compound 0.1% w/w with preservative (phenoxyethanol) 0.5% w/w (Table 5)
  Reduction factor A. niger, 7 d: >1180
[1]; test compound 0.1% w/w, preservative 0 (Table 5)
  Reduction factor A. niger, 7 d: 2
[1]; test compound 0.1% with 2-Phenylethanol 0.25% + benzylalcohol 0.25%
  Spores/ml after 7 d: <100 Spores/ml
[1]; test compound 0.1% with 2-Phenylethanol 0.25% + benzylalcohol 0.25%, 7 d
  Reduction factor: >1040
[1]; [14]
  Spores/ml after 7 d: <100 Spores/ml
[1]; test compound 0.1% with 2-Phenylethanol 0.5% + benzylalcohol 0.5%
  Spores/ml after 7 d: <100 Spores/ml
[1]; test compound 0.1% with 2-Phenylethanol 0.5% + benzylalcohol 0.5%, 7 d
  Reduction factor: >1040
[1]; test compound 0.1% with 2-Phenylethanol 0.5%, 7 d
  Reduction factor: >1040
[1]; [9]
  Spores/ml after 7 d: <100 Spores/ml
[1]; [10]
  Reduction factor: >1040
[1]; [11]
  Spores/ml after 7 d: 1.0 × 10^5 Spores/ml
[1]; [12]
  Reduction factor: 1.04
[1]; varying concentrations (Table 5)
  Enhancing effect of the test compound in presence of the preservative compound (phenoxyethanol): enhancing effect
[4]; [13]
  Yeasts (cfu/g cream) 48 h: 7.4 × 10^3 cfu/g cream
  Yeasts (cfu/g cream) 7 d: 2.2 × 10^5 cfu/g cream
[4]; [14]
  Yeasts (cfu/g cream) 48 h: <200 cfu/g cream
  Yeasts (cfu/g cream) 7 d: <200 cfu/g cream
[4]; [15]
  Yeasts (cfu/g cream) 48 h: <200 cfu/g cream
  Yeasts (cfu/g cream) 7 d: <200 cfu/g cream

## COc1ccc(C=O)cc1 [4-methoxybenzaldehyde]
[2]
  Reduction factor: 5
  Spores/ml: 4.68 × 10^4 Spores/ml
  Sporicidal effect (reduction of spore counts) in water: No significant reduction of spore counts
[2]; listed as 4-methoxy-benzaldehyde
  Sporicidal effect (reduction of spore counts) in water: no significant sporicidal effect
[1]; [5]
  Spores/ml after 7 d: <100 Spores/ml
[1]; [6]
  Reduction factor: >737
[1]
  Enhancing activity in cream: excellent enhancing activity
[1]; [7]
  Spores/ml after 7 d: <100 Spores/ml
[1]; [8]
  Reduction factor: >737
[1]; [9]
  Spores/ml after 7 d: <100 Spores/ml
[1]; [10]
  Reduction factor: >1040
[1]; [11]
  Spores/ml after 7 d: 2.8 × 10^3 Spores/ml
[1]; [12]
  Reduction factor: 37.1

## CC(C)c1ccc(CO)cc1 [Cuminic alcohol, reference compound]
[2]
  Reduction factor: <2
  Spores/ml: >1.2 × 10^5 Spores/ml

## O=Cc1cc(O)cc(O)c1 [3,5-dihydroxybenzaldehyde]
[1]; [9]
  Spores/ml after 7 d: <100 Spores/ml
[1]; [10]
  Reduction factor: >1040
[1]; [11]
  Spores/ml after 7 d: 1 × 10^4 Spores/ml
[1]; [12]
  Reduction factor: 10

## O=Cc1cccc(O)c1 [3-hydroxybenzaldehyde]
[1]; [5]
  Spores/ml after 7 d: <100 Spores/ml
[1]; [6]
  Reduction factor: >737

## COc1cc(C=O)ccc1O [Vanilline]
[1]; [5]
  Spores/ml after 7 d: <100 Spores/ml
[1]; [6]
  Reduction factor: >737
[1]; [9]
  Spores/ml after 7 d: <100 Spores/ml
[1]; [10]
  Reduction factor: >1040
[1]; [11]
  Spores/ml after 7 d: 1 × 10^4 Spores/ml
[1]; [12]
  Reduction factor: 10.4
